Data taken from patent US4273777A, “Methods of treating mammals suffering from inflammation and pain” (Laboratorios Bago S.A., priority 1980, dated 1981).

Experiments:
[1] = Influence on the gastro-intestinal tract (ulceration of the gastric epithelium, pylorus ligated, Shay et al.); format: in vivo, rat (Sprague Dawley)
Procedure: Influence on the gastro-intestinal tract
Ten male rats of Sprague Dawley strain, weighing 200-300 g were used for each compound tested. According to the method of Shay et al. (Shay, H., Komapov. S. A., Feb. S. S., Meranir, D., Gruenstein, M., Siplet, H. Gastroenterology 5, 43, 1945), under anesthesia, the pylorus was ligated and 4 hours later test compounds were orally administered. The animal was sacrificed 1 hour after compound administration. The stomach was removed and examined for macroscopic damage. The ulceration of the gastric epithelium was evaluated by the following evaluation: 0=no hemorrhage sites; 1=some isolated hemorrhagic sites; 2=redness of the gastric epithelium; 3=1 to 5 small ulcers with a diameter smaller than 3 mm; 4=many small ulcers; 5=ulcers--greater than 3 mm; 6=perforated ulcer.

[2] = Tail pressure test (analgesic activity); format: in vivo, mouse (Rockland); settings: oral; control (water) 0; dose mg/kg: ASA 100, pivaloyloxymethyl TPA ester 166 and 66, CPA 50, TPA 47, phthalidyl CPA ester 72, pivaloyloxymethyl CPA ester 69, xylyl anthranylates 77 (phthalidyl)/74 (pivaloyloxymethyl), TAA 50, its phthalidyl ester 73.5, pivaloyloxymethyl ester 82
Procedure: Tail pressure test: Ten male mice of Rockland strain weighing 20-25 g were used for each compound tested. The response threshold on applying pressure to the tail was determined with an analgesy meter at 15 and 60 minutes after oral administration of the test compound. The pressure at which a struggle was elicited was read.

[3] = Randall-Selitto test (analgesic activity, carrageenin inflamed foot); format: in vivo, mouse (Rockland); settings: oral, 30 minutes before carrageenin; control (water) 0; doses as for tail pressure (pivaloyloxymethyl TPA ester 166 mg/kg, 66 mg/kg)
Procedure: Randall-Selitto's method: Ten male mice of Rockland strain weighing 25 g were used for each compound tested. 0.1 ml of 1% carrageenin saline suspension was injected into the subplantar region of the right foot. The test compounds were orally administered 30 minutes before the injection. At hourly intervals for 3 hours after the carrageenin injection, the pain threshold for the inflammed feet was measured determining the amount of pressure with an analgesy meter.

[4] = Carrageenin induced edema test (anti-inflammatory activity); set-up: species or system rat (Sprague Dawley); settings: rat, in vivo
Procedure: Anti-inflammatory Activity (Carrageenin induced edema test)
Fifteen to twenty male rats of Sprague Dawley strain weighing 150-200 g, were employed for each compound tested. 0.1 ml of 1% carrageenin saline suspension was injected into the subplantar region of the right hind-paw. The test compounds were orally administered 30 minutes prior to the injection of carrageenin and the foot volume was determined 1, 3 and 5 hours after the injection of carrageenin. The percent swelling in the foot was obtained by comparing the volume before and after the injection of carrageenin, and the rate of inhibition in the treated animals was calculated.

[5] = oral, 1 hour after compound, score 0=no hemorrhage sites to 6=perforated ulcer, control 3.0, dose mg/kg: phenylbutazone 75, ASA 100, TPA 47, pivaloyloxymethyl TPA ester 66, CPA 150, phthalidyl CPA ester 216, pivaloyloxymethyl CPA ester 207, xylyl anthranylates 186/196, TAA 60, its esters 88/84.5
[6] = versus control (distilled water) 3.0, oral

SMILES	Evaluation (ulceration of the gastric epithelium) ([1]; rat, in vivo, po)	Increase (of ulceration evaluation over control) ([1]; rat, in vivo, po)	Evaluation (ulceration of the gastric epithelium) [1, 5]	Increase (of ulceration evaluation over control) [1, 6]	Relative strength, Tail pressure test [2]	Relative strength, Randall-Selitto test [3]	anti-inflammatory activity, in words [4]
CCCCC1C(=O)N(c2ccccc2)N(c2ccccc2)C1=O [Phenylbutazone, reference compound]	5.5	2.5					
Cc1c(Cl)cccc1Nc1ncccc1C(=O)OC1OC(=O)c2ccccc21 (stereo not shown) [Phthalydil 2(3'-chloro-2'-methylanilino)pyridine 3-carboxylate]			3.6	0.6			
CC(=O)Oc1ccccc1C(=O)O [Acetylsalicylic acid (ASA), Acetylsalicylic acid, reference compound]	4.1	1.1					
O=C(O)c1ccccc1Nc1cccc(C(F)(F)F)c1 [N-(3'-trifluorotolyl)-anthranylic acid, reference compound]			4.9	1.9	0.5	5.3	
CC(C)(C)C(=O)OCOC(=O)c1cccnc1Nc1cccc(C(F)(F)F)c1 [Pivaloyloxymethyl 2-(3'-trifluoromethylanilino)-pyridine-3-carboxylate]			3.2	0.2			act as anti-inflammatory agent more than as antinociceptive agents
O=C(OC1OC(=O)c2ccccc21)c1ccccc1Nc1cccc(C(F)(F)F)c1 (stereo not shown) [Phthalidyl N-(3'-trifluorotolyl) anthranylate]			3.5	0.5	0.74	10.6	
Cc1c(Cl)cccc1Nc1ncccc1C(=O)OCOC(=O)C(C)(C)C [Pivaloyloxymethyl 2-(3'-chloro-2'-methylanilino)-pyridine-3-carboxylate]			3.0				
CC(C)(C)C(=O)OCOC(=O)c1ccccc1Nc1cccc(C(F)(F)F)c1 [Pivaloyloxymethyl N-(3'-trifluorotolyl) anthranylate]			3.6	0.6			
Cc1cccc(Nc2ccccc2C(=O)OC2OC(=O)c3ccccc32)c1C (stereo not shown) [Phthalidyl N-(2',3'-xylyl) anthranylate]			3.3	0.3	0.56	1.37	
O=C(O)c1cccnc1Nc1cccc(C(F)(F)F)c1 [2-(3'-trifluoromethyl-anilino)-3-pyridinecarboxylic acid, reference compound]			3.9	0.9			
Cc1cccc(Nc2ccccc2C(=O)OCOC(=O)C(C)(C)C)c1C [Pivaloyloxymethyl N-(2',3'-xylyl) anthranylate]			3.4	0.4			
